Assay results from PMC8998978, “Toward a Treatment of Cancer: Design and In Vitro/In Vivo Evaluation of Uncharged Pyrazoline Derivatives as a Series of Novel SHP2 Inhibitors” (International Journal of Molecular Sciences, 2022).

Target: T1, recombinant human SHP2 protein (Homo sapiens, UniProt Q06124)
T1 sequence (Q06124 1-593): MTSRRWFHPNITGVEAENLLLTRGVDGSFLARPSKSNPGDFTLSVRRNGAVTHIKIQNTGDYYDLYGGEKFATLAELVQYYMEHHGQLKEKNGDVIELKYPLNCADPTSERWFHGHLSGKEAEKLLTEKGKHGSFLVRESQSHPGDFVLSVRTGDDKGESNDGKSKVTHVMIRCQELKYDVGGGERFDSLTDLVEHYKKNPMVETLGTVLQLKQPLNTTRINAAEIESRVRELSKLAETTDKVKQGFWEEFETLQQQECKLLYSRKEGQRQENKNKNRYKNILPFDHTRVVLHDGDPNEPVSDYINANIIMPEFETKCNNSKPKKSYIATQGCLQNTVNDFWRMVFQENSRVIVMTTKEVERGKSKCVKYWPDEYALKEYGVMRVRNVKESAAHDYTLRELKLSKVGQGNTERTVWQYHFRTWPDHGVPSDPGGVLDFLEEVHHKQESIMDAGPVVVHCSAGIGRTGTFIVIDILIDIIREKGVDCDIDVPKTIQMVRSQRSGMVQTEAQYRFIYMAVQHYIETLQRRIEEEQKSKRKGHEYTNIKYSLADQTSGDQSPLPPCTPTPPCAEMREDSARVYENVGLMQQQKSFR
Assay: SHP2 inhibition assay (pNPP substrate)
Type: biochemical
Conditions: pNPP 4 mM, SHP2 240 nM, 37 °C, 30 min; means ± SD
Experimental: pGEX-4T1 SHP2 WT (plasmid #8322) was purchased from Addgene. […] Then, 0.2 mM IPTG (Sangon Biotech, Shanghai, China) was added to induce the expression of protein at 30 °C for 4 h followed by centrifugation and cells collection. Cells were then broken by ultrasound in lysis buffer (20 mM Tris–HCl (pH 8.0), 100 mM KCl, 10% glycerol, 1 mM DTT, 0.5% Triton X-100) on ice. The supernatant was collected by centrifugation at 10,000× g for 15 min at 4 °C. The BeaverBeads GSH (Beaver Biosciences Inc., Guangzhou, China) washed by lysis buffer were incubated with the supernatant for 2 h at 4 °C. […] Then, the experiment was performed in a final volume of 100 μL containing 10 mM Tris–HCl (pH 7.5), 25 mM NaCl, 1 mM EDTA and 4 mM pNPP in a 96-well plate at 37 °C for 30 min. The amount of product p-nitrophenol was determined by the absorbance at 405 nm in a multimode reader (Berthold Technologies GmbH & Co.KG, Bad Wildbad, Baden Württemberg, Germany). The IC50 value was calculated by GraphPad Prism 7.0 software (GraphPad Inc, San Diego, CA, USA).

Compound	IC50
CCCC(=O)N1N=C(c2ccc(Oc3ccccc3)cc2)CC1c1ccc(O)c(O)c1 (stereo not drawn) [Compound 4d, 1-(5-(3,4-dihydroxyphenyl)-3-(4-phenoxyphenyl)-4,5-dihydro-1H-pyrazol-1-yl)butan-1-one]	9.51 ± 2.01 µM
O=C1CSC(N2N=C(c3ccc(Oc4ccccc4)cc3)CC2c2ccc(O)c(O)c2)=N1 (stereo not drawn) [Compound 4k, 2-(5-(3,4-dihydroxyphenyl)-3-(4-phenoxyphenyl)-4,5-dihydro-1H-pyrazol-1-yl)thiazol-4(5H)-one]	4.98 ± 0.77 µM
NC(=S)N1N=C(c2ccc(Br)cc2)CC1c1ccc(O)c(O)c1 (stereo not drawn) [Compound 4i, 3-(4-bromophenyl)-5-(3,4-dihydroxyphenyl)-4,5-dihydro-1H-pyrazole-1-carbothioamide]	20.4 ± 2.45 µM
CCOc1ccc(Oc2ccc(C3=NN(C4=NC(=O)CS4)C(c4ccc(O)c(O)c4)C3)cc2)cc1 (stereo not drawn) [Compound 4l, 2-(5-(3,4-dihydroxyphenyl)-3-(4-(4-ethoxyphenoxy)phenyl)-4,5-dihydro-1H-pyrazol-1-yl)thiazol-4(5H)-one]	4.36 ± 0.65 µM
CC(C)(C)c1ccc(Oc2ccc(C3=NN(C=O)C(c4ccc(O)c(O)c4)C3)cc2)cc1 (stereo not drawn) [Compound 4b, 3-(4-(4-(tert-butyl)phenoxy)phenyl)-5-(3,4-dihydroxyphenyl)-4,5-dihydro-1H-pyrazole-1-carbaldehyde]	13.7 ± 1.98 µM
CCOc1ccc(Oc2ccc(C3=NN(C=O)C(c4ccc(O)c(O)c4)C3)cc2)cc1 (stereo not drawn) [Compound 4a, 5-(3,4-dihydroxyphenyl)-3-(4-(4-ethoxyphenoxy)phenyl)-4,5-dihydro-1H-pyrazole-1-carbaldehyde]	13.3 ± 2.11 µM
NC(=S)N1N=C(c2ccc(Oc3ccccc3)cc2)CC1c1ccc(O)c(O)c1 (stereo not drawn) [Compound 4g, 5-(3,4-dihydroxyphenyl)-3-(4-phenoxyphenyl)-4,5-dihydro-1H-pyrazole-1-carbothioamide]	5.97 ± 0.88 µM
CCC(=O)N1N=C(c2ccc(Oc3ccccc3)cc2)CC1c1ccc(O)c(O)c1 (stereo not drawn) [Compound 4c, 1-(5-(3,4-dihydroxyphenyl)-3-(4-phenoxyphenyl)-4,5-dihydro-1H-pyrazol-1-yl)propan-1-one]	34.2 ± 5.9 µM
COc1ccc(C2=NN(C(N)=S)C(c3ccc(O)c(O)c3)C2)cc1 (stereo not drawn) [Compound 4f, 5-(3,4-dihydroxyphenyl)-3-(4-methoxyphenyl)-4,5-dihydro-1H-pyrazole-1-carbothioamide]	13.2 ± 1.89 µM
CCOc1ccc(Oc2ccc(C3=NN(C(N)=S)C(c4ccc(O)c(O)c4)C3)cc2)cc1 (stereo not drawn) [Compound 4e, 5-(3,4-dihydroxyphenyl)-3-(4-(4-ethoxyphenoxy)phenyl)-4,5-dihydro-1H-pyrazole-1-carbothioamide]	5.96 ± 0.92 µM
CC(C)(C)c1ccc(Oc2ccc(C3=NN(C(N)=S)C(c4ccc(O)c(O)c4)C3)cc2)cc1 (stereo not drawn) [Compound 4h, 3-(4-(4-(tert-butyl)phenoxy)phenyl)-5-(3,4-dihydroxyphenyl)-4,5-dihydro-1H-pyrazole-1-carbothioamide]	8.44 ± 2.03 µM
COc1ccc(C2=NN(C3=NC(=O)CS3)C(c3ccc(O)c(O)c3)C2)cc1 (stereo not drawn) [Compound 4j, 2-(5-(3,4-dihydroxyphenyl)-3-(4-methoxyphenyl)-4,5-dihydro-1H-pyrazol-1-yl)thiazol-4(5H)-one]	11.4 ± 1.56 µM
CC(C)(C)c1ccc(Oc2ccc(C3=NN(C4=NC(=O)CS4)C(c4ccc(O)c(O)c4)C3)cc2)cc1 (stereo not drawn) [Compound 4m, 2-(3-(4-(4-(tert-butyl)phenoxy)phenyl)-5-(3,4-dihydroxyphenyl)-4,5-dihydro-1H-pyrazol-1-yl)thiazol-4(5H)-one]	4.94 ± 0.79 µM
O=C1CSC(N2N=C(c3ccc(Br)cc3)CC2c2ccc(O)c(O)c2)=N1 (stereo not drawn) [Compound 4n, 2-(3-(4-bromophenyl)-5-(3,4-dihydroxyphenyl)-4,5-dihydro-1H-pyrazol-1-yl)thiazol-4(5H)-one]	18.5 ± 2.32 µM

Test system: HCT116 cells xenograft
Assay: Anti-tumor activity in vivo, HCT116 xenograft model
Design: species or system BALB/c-nude mice
Conditions: 4o 25, 50 mg/kg or 5-FU 25 mg/kg, 13 days
Experimental: Male BALB/c-nude mice (Jinan Pengyue Experimental Animal Breeding Co., Ltd., Jinan, China), 5 weeks of age, were used. The mice were housed in a specific pathogen-free room with temperature controlled (22 ± 2 °C), humidity (55 ± 10%) and a light/dark cycle of 12 h, providing sterile food and water. The HCT116 cells xenograft model was conducted, and 1 × 10^7 HCT116 cells were subcutaneously injected into the right armpit of mice. The tumor volume of mice was measured every three days to evaluate the tumor growth. When the tumor volume reached about 100 mm^3, the mice were randomly divided into four groups (n = 6), and treated with vehicle (0.5% CMC-Na solution) or 4o (25, 50 mg/kg) by gavage once a day for 13 consecutive days. A total of 25 mg/kg 5-FU was used as a positive control. The body weight of mice was measured every three days. The length (L) and width (W) of tumors were measured by electronic caliper every three days. The volume (V) was calculated as follows: V = (L × W^2)/2. When the tumor volume reached about 1000 mm^3, the tumors were excised. Immunohistochemical analysis were used to evaluate the related protein levels.

Compound	Effect on body weight of tumor-bearing mice
O=c1[nH]cc(F)c(=O)[nH]1 [Compound 5-FU, 5-fluorouracil, reference compound]	showed a decrease

Same assay, conditions: 5-FU 25 mg/kg, positive drug, 13 days

Compound	Tumor inhibition rate
O=c1[nH]cc(F)c(=O)[nH]1 [Compound 5-FU, 5-fluorouracil, reference compound]	54.8%

Test system: SHP2
Assay: not given
Conditions: cited from earlier work

Compound	IC50
NC(=O)C(c1ccccc1)S(=O)(=O)O (stereo not drawn) [Sulfophenyl acetic amide]	1.5 µM
Tautomycetin	2.9 µM
